Data: patent publication US20090069317A1, “Insecticidal Methods Using 3-Amino-1,2-Benzisothiazole Derivatives” (BASF SE, priority 2005, published 2009)

What was measured:
[1] = system: Cotton Aphid (Aphis gossypii); test: Cotton aphid (Aphis gossypii) cotyledon dip test, mortality; type: in vivo; details: 120 h, cotton cotyledons dipped, mortality counts after 5 days, read-out: mortality in comparison with untreated controls
Description: B.1 Cotton Aphid (Aphis gossypii)
(§1) The active compounds were formulated in 50:50 acetone:water and 100 ppm Kinetic® surfactant.
Cotton plants at the cotyledon stage (one plant per pot) were infested by placing a heavily infested leaf from the main colony on top of each cotyledon. The aphids were allowed to transfer to the host plant overnight, and the leaf used to transfer the aphids was removed. The cotyledons were dipped in the test solution and allowed to dry. After 5 days, mortality counts were made.

[2] = system: Green Peach Aphid (Myzus Persicae); test: Green peach aphid (Myzus persicae) pepper leaf dip test, mortality; type: in vivo; details: foliar, 120 h, pepper plant leaves dipped, aphid mortality after 5 days, read-out: mortality in comparison with untreated controls
Description: B.2 Green Peach Aphid (Myzus Persicae)
as §1
Pepper plants in the 2nd leaf-pair stage (variety ‘California Wonder’) were infested with approximately 40 laboratory-reared aphids by placing infested leaf sections on top of the test plants. The leaf sections were removed after 24 hr. The leaves of the intact plants were dipped into gradient solutions of the test compound and allowed to dry. Test plants were maintained under fluorescent light (24 hour photoperiod) at about 25° C. and 20-40% relative humidity. Aphid mortality on the treated plants, relative to mortality on check plants, was determined after 5 days.

[3] = system: Bean Aphid (Aphis fabae); test: Bean aphid (Aphis fabae) nasturtium plant dip test, mortality; type: in vivo; details: 72 h, nasturtium plants dipped, aphid mortality after 3 days, read-out: mortality in comparison with untreated controls
Description: B.3. Bean Aphid (Aphis fabae)
as §1
Nasturtium plants grown in Metro mix in the 1st leaf-pair stage (variety ‘Mixed Jewel’) were infested with approximately 20-30 laboratory-reared aphids by placing infested cut plants on top of the test plants. The cut plants were removed after 24 hr. Each plant was dipped into the test solution to provide complete coverage of the foliage, stem, protruding seed surface and surrounding cube surface and allowed to dry in the fume hood. The treated plants were kept at about 25° C. with continuous fluorescent light. Aphid mortality is determined after 3 days.

| melting point | Compound | mortality at 300 ppm [1] | mortality at 300 ppm [2] | mortality at 300 ppm [3] |
| --- | --- | --- | --- | --- |
|  | CCN(CC)C1=NS(=O)(=O)c2cccc(Cl)c21 [Compound 3] | > 86% | > 86% | > 86% |
|  | C#CCN(C1=NS(=O)(=O)c2cccc(Cl)c21)C(C)C [Compound 4] | > 86% |  | > 86% |
|  | CCN(CC(C)C)C1=NS(=O)(=O)c2cccc(Cl)c21 [Compound 5] | > 86% |  | > 86% |
|  | CC(C)N(C1=NS(=O)(=O)c2cccc(Cl)c21)C1CC1 [Compound 6] | > 86% | > 86% | > 86% |
|  | CCN(C)C1=NS(=O)(=O)c2cccc(Cl)c21 [Compound 7] | > 86% | > 86% | > 86% |
|  | C=CCN(CCC)C1=NS(=O)(=O)c2cccc(Cl)c21 [Compound 8] | > 86% |  | > 86% |
|  | C=CCN(C1=NS(=O)(=O)c2cccc(Cl)c21)C(C)C [Compound 9] | > 86% |  | > 86% |
|  | CC(C)N(C1=NS(=O)(=O)c2cccc(Cl)c21)C(C)C [Compound 11] |  |  | > 86% |
|  | CCN(Cc1ccccc1)C1=NS(=O)(=O)c2cccc(Cl)c21 [Compound 12] |  |  | > 86% |
|  | CN(CC#N)C1=NS(=O)(=O)c2cccc(Cl)c21 [Compound 15] | > 86% | > 86% | > 86% |
|  | CON(C)C1=NS(=O)(=O)c2cccc(Cl)c21 [Compound 23] | > 86% | > 86% | > 86% |
|  | C#CCN(C1=NS(=O)(=O)c2cccc(OC(F)F)c21)C(C)C [Compound 36] | > 86% | > 86% | > 86% |
|  | CN(C)c1nsc2cccc(Cl)c12 [Compound 49] | > 86% | > 86% | > 86% |
| 49 to 50 °C | CCN(CC)c1nsc2cccc(OC(F)F)c12 [Compound 59] |  |  |  |
|  | CCN(C)c1n[s+]([O-])c2cccc(Cl)c12 (stereo not drawn) [Compound 88] | > 86% | > 86% |  |
|  | CCN(CC)C1=NS(=O)(=O)c2c(F)ccc(OC)c21 [Compound 89] | > 86% | > 86% |  |
|  | CCN(C)C1=NS(=O)(=O)c2c(F)ccc(OC)c21 [Compound 91] | > 86% | > 86% |  |
|  | COc1cccc2snc(N(C)Cc3ccccc3)c12 [Compound 92] | > 86% | > 86% |  |
|  | CN(c1nsc2cccc(Cl)c12)C1CCCC1 [Compound 93] | > 86% | > 86% |  |
|  | COc1cccc2c1c(N(C)C)n[s+]2[O-] (stereo not drawn) [Compound 94] | > 86% | > 86% |  |
|  | CCN(CC)c1n[s+]([O-])c2cccc(OC)c12 (stereo not drawn) [Compound 95] | > 86% | > 86% |  |
|  | COc1ccc(F)c2c1C(N(C)CC#N)=NS2(=O)=O [Compound 96] | > 86% | > 86% |  |
|  | CC(C)N(O)C1=NS(=O)(=O)c2cccc(Cl)c21 [Compound 98] | > 86% | > 86% |  |
|  | COc1ccc(F)c2c1C(N(C)OC)=NS2(=O)=O [Compound 108] | > 86% | > 86% |  |
|  | CON(C)C1=NS(=O)(=O)c2cccc(OC(F)F)c21 [Compound 109] | > 86% | > 86% |  |
|  | CCON(C)C1=NS(=O)(=O)c2cccc(OC(F)F)c21 [Compound 110] | > 86% | > 86% |  |
|  | CCON(C1=NS(=O)(=O)c2cccc(OC(F)F)c21)C(C)C [Compound 111] | > 86% | > 86% |  |
|  | CCON(CC)C1=NS(=O)(=O)c2cccc(OC(F)F)c21 [Compound 112] | > 86% | > 86% |  |
